From ChEMBL document CHEMBL6109035, “Anticonvulsant effects of new coumarin-2,3-dimethylbutadiene Diels-Alder cycloadducts in the pentylenetetrazole-induced clonic seizures in mice” (Bioorg Med Chem Lett, 2025)

Columns and labels:
Mus musculus [1] = test: Antiseizure activity in PTZ-induced male CD-1 mouse clonic seizure model assessed as increase in latency time by measuring fold change at 13 mg/kg, ip pretreated with compound followed by PTZ-induction; type: functional
Mus musculus [2] = test: Antiseizure activity in PTZ-induced male CD-1 mouse clonic seizure model assessed as increase in latency time at 13 mg/kg, ip pretreated with compound followed by PTZ-induction; type: functional
Mus musculus [3] = test: Antiseizure activity in PTZ-induced male CD-1 mouse clonic seizure model assessed as improvement in locomotor activity by measuring fold change at 13 mg/kg, ip pretreated with compound followed by PTZ-induction; type: functional
Mus musculus [4] = test: Antiseizure activity in PTZ-induced male CD-1 mouse clonic seizure model assessed as improvement in locomotor activity by measuring total events at 13 mg/kg, ip pretreated with compound followed by PTZ-induction by open field test; type: functional
[5] = Toxicity in male CD-1 mouse assessed as sedation at 12 to 13 mg/kg, ip; type: organism-based; conditions: in vivo, dose 12-13 mg/kg
[6] = Toxicity in male CD-1 mouse assessed as piloerection at 12 to 13 mg/kg, ip; type: organism-based; conditions: in vivo, dose 12-13 mg/kg
[7] = Toxicity in male CD-1 mouse assessed as stimulation of appetite at 12 to 13 mg/kg, ip; type: organism-based; conditions: in vivo, dose 12-13 mg/kg
Mus musculus [8] = test: Antiseizure activity in PTZ-induced male CD-1 mouse clonic seizure model assessed as increase in latency time by measuring fold change at 12 mg/kg, ip pretreated with compound followed by PTZ-induction; type: functional
Mus musculus [9] = test: Antiseizure activity in PTZ-induced male CD-1 mouse clonic seizure model assessed as increase in latency time at 12 mg/kg, ip pretreated with compound followed by PTZ-induction; type: functional
Mus musculus [10] = test: Antiseizure activity in PTZ-induced male CD-1 mouse clonic seizure model assessed as improvement in locomotor activity by measuring fold change at 12 mg/kg, ip pretreated with compound followed by PTZ-induction; type: functional
Mus musculus [11] = test: Antiseizure activity in PTZ-induced male CD-1 mouse clonic seizure model assessed as improvement in locomotor activity by measuring total events at 12 mg/kg, ip pretreated with compound followed by PTZ-induction by open field test; type: functional
Mus musculus [12] = test: Antiseizure activity in PTZ-induced male CD-1 mouse clonic seizure model assessed as increase in latency time by measuring fold change at 15 mg/kg, ip pretreated with compound followed by PTZ-induction; type: functional
Mus musculus [13] = test: Antiseizure activity in PTZ-induced male CD-1 mouse clonic seizure model assessed as improvement in locomotor activity by measuring fold change at 15 mg/kg, ip pretreated with compound followed by PTZ-induction by open field test; type: functional
Mus musculus [14] = test: Antiseizure activity in PTZ-induced male CD-1 mouse clonic seizure model assessed as increase in latency time at 15 mg/kg, ip pretreated with compound followed by PTZ-induction; type: functional
Mus musculus [15] = test: Antiseizure activity in PTZ-induced male CD-1 mouse clonic seizure model assessed as improvement in locomotor activity by measuring total events at 15 mg/kg, ip pretreated with compound followed by PTZ-induction by open field test; type: functional

CC1=C(C)C[C@]2(C(=O)c3ccc(Cl)cc3)C(=O)Oc3ccccc3[C@@H]2C1
fold change (FC) (Mus musculus [1]): ~4
Time (Mus musculus [2]): 266 s
fold change (FC) (Mus musculus [3]): 2.4
Activity (Mus musculus [4]): 2790
Activity [5]: Toxic
Activity [6]: Toxic
Activity [7]: Toxic

CC1=C(C)C[C@]2(C(=O)c3ccccc3)C(=O)Oc3ccccc3[C@@H]2C1
fold change (FC) (Mus musculus [8]): ~4
Time (Mus musculus [9]): 264 s
fold change (FC) (Mus musculus [10]): 2.4
Activity (Mus musculus [11]): 2747
Activity [5]: Toxic
Activity [6]: Toxic
Activity [7]: Toxic

CC1=C(C)C[C@]2(C(=O)c3ccc(C)cc3)C(=O)Oc3ccccc3[C@@H]2C1
fold change (FC) (Mus musculus [8]): ~4
Time (Mus musculus [9]): 269 s
fold change (FC) (Mus musculus [10]): 2.4
Activity (Mus musculus [11]): 2876
Activity [5]: Toxic
Activity [6]: Toxic
Activity [7]: Toxic

Cc1c(C(=O)c2cccc3ccccc23)c2cccc3c2n1C(CN1CCOCC1)CO3 (stereo not given)
fold change (FC) (Mus musculus [12]): ~4
fold change (FC) (Mus musculus [13]): 3
Time (Mus musculus [14]): 279 s
Activity (Mus musculus [15]): 3079
